From patent publication US20090137499A1, “BENZYLPHENYL GLUCOPYRANOSIDE DERIVATIVE” (priority 2006, published 2009)

The molecules below were run against T1, human SGLT2 (Homo sapiens, UniProt P31639) (assay: Determination of SGLT2 inhibiting activity using human SGLT2 expressing cell ([14C]-α-methyl-D-glucopyranoside uptake)). Details: HEK-SGLT2 cells, 1 mM [14C]-α-methyl-D-glucopyranoside, 37° C., 30 min.
T1 construct: expressed in transfected cells
T1 sequence (P31639 1-672): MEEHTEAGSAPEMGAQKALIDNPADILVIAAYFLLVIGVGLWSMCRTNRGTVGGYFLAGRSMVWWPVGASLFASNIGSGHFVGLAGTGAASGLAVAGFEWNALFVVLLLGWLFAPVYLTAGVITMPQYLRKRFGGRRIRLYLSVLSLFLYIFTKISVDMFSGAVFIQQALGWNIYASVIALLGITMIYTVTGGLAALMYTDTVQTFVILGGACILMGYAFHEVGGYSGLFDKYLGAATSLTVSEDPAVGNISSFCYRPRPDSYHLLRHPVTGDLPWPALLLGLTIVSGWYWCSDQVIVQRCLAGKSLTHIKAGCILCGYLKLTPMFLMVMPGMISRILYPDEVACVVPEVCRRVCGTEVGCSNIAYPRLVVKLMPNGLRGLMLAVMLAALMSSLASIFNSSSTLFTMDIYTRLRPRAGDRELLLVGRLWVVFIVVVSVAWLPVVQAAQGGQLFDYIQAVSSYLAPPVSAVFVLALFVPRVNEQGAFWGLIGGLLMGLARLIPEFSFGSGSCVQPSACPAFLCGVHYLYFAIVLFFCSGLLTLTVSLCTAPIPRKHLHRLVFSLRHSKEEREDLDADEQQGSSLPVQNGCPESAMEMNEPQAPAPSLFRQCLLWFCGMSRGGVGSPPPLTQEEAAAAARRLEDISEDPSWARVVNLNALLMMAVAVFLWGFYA
Format: cell-based
Method: Determination of SGLT2 Inhibiting Activity Using Human SGLT2 Expressing Cell
1) Preparation of Vector Expressing Human SGLT2 cDNA in Animal Cell
Amplification was performed by PCR using human SGLT2 cDNA clone (Origene: Clone Number, TC303267; GenBank accession number, NM 003041) as a template. The sense oligonucleotide primer for PCR was 5′-[…]-3′ (Primer 3: SEQ ID NO: 3 in the sequence listing),
and the antisense oligonucleotide primer was 5′-[…]-3′ (Primer 4: SEQ ID NO: 4 in the sequence listing). The PCR product was subjected to agarose electrophoresis, then a target DNA fragment was recovered from a single band corresponding to 2037 bases, digested with restriction enzymes HindIII and XhoI, and introduced into the HindIII/XhoI site of vector pCMV-Script (Stratagene) to obtain SGLT2 expressing plasmid pCMV-SGLT2. A HindIII/XhoI fragment was excised from pCMV-SGLT2 and introduced into the BamHI/XhoI site of pENTR1A (Gateway, Invitrogen) to prepare pENTR-SGLT2. Retrovirus vector pLPCX (Clontech) into which Gateway Vector Conversion System Cassette A (Invitrogen) was introduced was used as the destination plasmid to prepare SGLT2 expressing retrovirus vector pLPCX-SGLT2.
2) Establishment of Human SGLT2 Expressing Cell
The retrovirus pLPCX-SGLT2 obtained in 1) was transfected into integrin αvβ3 expressing HEK-293 cells, the cells were treated with antibiotic G418 (brand name, Geneticin: Invitrogen) and puromycin (Clontech) to obtain HEK-SGLT2 cells stably expressing the target vector having resistance. The stably expressing cells were cultured and maintained in DMEM medium containing […] G418, […] puromycin, 3 mM KGT-1075, and 10% FBS.
3) Determination of SGLT2 Inhibiting Activity
HEK-SGLT2 cells were suspended at a density of 10^6 cells/mL in DMEM medium containing 250 mg/mil G418, 1 mg/ml puromycin, and 10% FBS, and 100 μL was seeded in each well of a type 1 collagen-coated 96-well culture plate (Corning). On the following day, the medium was replaced with a sugar uptake buffer (10 mM HEPES [pH 7.5], 5 mM Tris-HCl [pH 7.5], 140 mM NaCl, 2 mM KCl, 1 mM CaCl2, 1 mM MgCl2), and the cells were cultured with 1 mM [^14C]-α-methyl-D-glucopyranoside (0.1 mCi) and a test compound at 37° C. for 30 min, and then washed 3 times with a washing buffer (10 mM HEPES (pH 7.5), 5 mM Tris-HCl (pH 7.5), 140 mM choline chloride, 2 mM KCl, 1 mM CaCl2, 1 mM MgCl2). 100 μL of liquid scintillation cocktail (brand name, Supermix: Perkin-Elmer) was added to each well of the 96-well plate and stirred for 10 min, and then radioactivity was determined with micro β (Perkin-Elmer), a type of liquid scintillation counter. The value obtained by deducting the radioactivity in the presence of an excess amount of an SGLT2 inhibiting compound as the background from each measured value was taken as the sugar uptake activity, the inhibition rate (%) was calculated from the control sugar uptake activity obtained without using a test compound and the sugar uptake activity obtained using a test compound having a predetermined concentration, and the concentrations of the test compound at which the sugar uptake activity was inhibited by 50% were assessed.

| Structure (SMILES) | IC50 |
| --- | --- |
| COc1ccc(Cc2cc(CO)cnc2O[C@@H]2O[C@H]([C@@H](C)O)[C@@H](O)[C@H](O)[C@H]2O)cc1 [Example 38, 3-(4-Methoxybenzyl)-5-hydroxymethylpyridin-2-yl 7-deoxy-D-glycero-β-D-gluco-heptopyranoside] | 17 nM |
| COc1ccc(Cc2c(Cl)cccc2O[C@@H]2O[C@H]([C@@H](C)O)[C@@H](O)[C@H](O)[C@H]2O)cc1 [Example 42, 3-Chloro-2-(4-methoxybenzyl)phenyl 7-deoxy-D-glycero-β-D-gluco-heptopyranoside] | 18 nM |
| COc1ccc(Cc2c(Cl)cc(C)cc2O[C@@H]2O[C@H]([C@@H](C)O)[C@@H](O)[C@H](O)[C@H]2O)cc1 [Example 43, 3-Chloro-5-methyl-2-(4-methoxybenzyl)phenyl 7-deoxy-D-glycero-β-D-gluco-heptopyranoside] | 61 nM |
| CCOc1ccc(Cc2c(Cl)cc(CO)cc2O[C@@H]2O[C@H]([C@@H](C)O)[C@@H](O)[C@H](O)[C@H]2O)cc1 [Example 45, 3-Chloro-2-(4-ethoxybenzyl)-5-hydroxymethyl-phenyl 7-deoxy-D-glycero-β-D-gluco-heptopyranoside] | 45 nM |
| CCc1ccc(Cc2c(F)cc(CO)cc2O[C@@H]2O[C@H]([C@@H](C)O)[C@@H](O)[C@H](O)[C@H]2O)cc1 [Example 47, 2-(4-Ethylbenzyl)-3-fluoro-5-hydroxymethyl-phenyl 7-deoxy-D-glycero-β-D-gluco-heptopyranoside] | 38 nM |
| C[C@@H](O)[C@H]1O[C@@H](Oc2cc(CO)ccc2Cc2ccc(C3CC3)cc2)[C@H](O)[C@@H](O)[C@@H]1O [Example 62, 2-(4-Cyclopropylbenzyl)-5-hydroxymethylphenyl 7-deoxy-D-glycero-β-D-gluco-heptopyranoside] | 32 nM |
| C[C@@H](O)[C@H]1O[C@@H](Oc2cc(CO)cc(F)c2Cc2ccc(OC3CC3)cc2)[C@H](O)[C@@H](O)[C@@H]1O [Example 63, 2-(4-Cyclopropoxybenzyl)-3-fluoro-5-hydroxymethyl-phenyl 7-deoxy-D-glycero-β-D-gluco-heptopyranoside] | 34 nM |
| CSc1ccc(Cc2ccc(CO)cc2O[C@@H]2O[C@H]([C@@H](C)O)[C@@H](O)[C@H](O)[C@H]2O)cc1 [Example 66, 5-Hydroxymethyl-2-(4-methylsulfanylbenzyl)phenyl 7-deoxy-D-glycero-β-D-gluco-heptopyranoside] | 23 nM |
| CCc1ccc(Cc2ccc(CCO)cc2O[C@@H]2O[C@H]([C@@H](C)O)[C@@H](O)[C@H](O)[C@H]2O)cc1 [Example 67, 2-(4-Ethylbenzyl)-5-(2-hydroxyethyl)phenyl 7-deoxy-D-glycero-β-D-gluco-heptopyranoside] | 30 nM |
| COc1ccc(Cc2c(C)cc(C)cc2O[C@@H]2O[C@H]([C@@H](C)O)[C@@H](O)[C@H](O)[C@H]2O)cc1F [Example 69, 2-(3-Fluoro-4-methoxybenzyl)-3,5-dimethylphenyl 7-deoxy-D-glycero-β-D-gluco-heptopyranoside] | 40 nM |
| Cc1cc(C)c(Cc2ccc(CCO)cc2)c(O[C@@H]2O[C@H]([C@@H](C)O)[C@@H](O)[C@H](O)[C@H]2O)c1 [Example 70, 2-[4-(2-Hydroxyethyl)benzyl]-3,5-dimethylphenyl 7-deoxy-D-glycero-β-D-gluco-heptopyranoside] | 40 nM |
| CCCOc1ccc(Cc2c(F)cc(CO)cc2O[C@@H]2O[C@H]([C@@H](C)O)[C@@H](O)[C@H](O)[C@H]2O)cc1 [Example 74, 3-Fluoro-5-hydroxymethyl-2-(4-propoxybenzyl)phenyl 7-deoxy-D-glycero-β-D-gluco-heptopyranoside] | 47 nM |
| CC(C)Oc1ccc(Cc2c(F)cc(CO)cc2O[C@@H]2O[C@H]([C@@H](C)O)[C@@H](O)[C@H](O)[C@H]2O)cc1 [Example 75, 3-Fluoro-5-hydroxymethyl-2-(4-isopropoxybenzyl)phenyl 7-deoxy-D-glycero-β-D-gluco-heptopyranoside] | 38 nM |
| COc1ccc(Cc2c(C)cc(C)cc2O[C@@H]2O[C@H]([C@@H](C)O)[C@@H](O)[C@H](O)[C@H]2O)cc1 [Example 77, 3,5-Dimethyl-2-(4-methoxybenzyl)phenyl 7-deoxy-D-glycero-β-D-gluco-heptopyranoside] | 25 nM |

Molecules with a lower IC50, results first:

| IC50 | Structure (SMILES) |
| --- | --- |
| 16 nM | CCOc1ccc(Cc2c(F)cc(CO)cc2O[C@@H]2O[C@H]([C@@H](C)O)[C@@H](O)[C@H](O)[C@H]2O)cc1 [Example 46, 2-(4-Ethoxybenzyl)-3-fluoro-5-hydroxymethyl-phenyl 7-deoxy-D-glycero-β-D-gluco-heptopyranoside] |
| 14 nM | CCc1ccc(Cc2ccc(N)cc2O[C@@H]2O[C@H](C(C)O)[C@@](C)(O)[C@H](O)[C@H]2O)cc1 (stereo partly drawn) [Example 41, 5-Amino-2-(4-ethylbenzyl)phenyl 4-C-methyl-7-deoxy-glycero-β-D-gluco-heptapyranoside] |
| 12 nM | C[C@@H](O)[C@H]1O[C@@H](Oc2cc(CO)ccc2Cc2ccc(OC3CC3)cc2)[C@H](O)[C@@H](O)[C@@H]1O [Example 60, 2-(4-Cyclopropyloxybenzyl)-5-hydroxymethylphenyl 7-deoxy-D-glycero-β-D-gluco-heptopyranoside] |
| 12 nM | C[C@@H](O)[C@H]1O[C@@H](Oc2cc(CO)ccc2Cc2ccc(CCCO)cc2)[C@H](O)[C@@H](O)[C@@H]1O [Example 68, 5-Hydroxymethyl-2-[4-(3-hydroxypropyl)benzyl]phenyl 7-deoxy-D-glycero-β-D-gluco-heptopyranoside] |
| 11 nM | COc1ccc(Cc2c(Cl)cc(CO)cc2O[C@@H]2O[C@H]([C@H](C)O)[C@@H](O)[C@H](O)[C@H]2O)cc1 [Example 57, 3-Chloro-5-hydroxymethyl-2-(4-methoxybenzyl)phenyl 7-deoxy-L-glycero-β-D-gluco-heptopyranoside] |
| 11 nM | COc1ccc(Cc2ccc(CO)cc2O[C@@H]2O[C@H]([C@@H](C)O)[C@@H](O)[C@H](O)[C@H]2O)cc1F [Example 78, 2-(3-Fluoro-4-methoxybenzyl)-5-hydroxymethylphenyl 7-deoxy-D-glycero-β-D-gluco-heptopyranoside] |
| 10 nM | COc1ccc(Cc2c(Cl)cc(CO)cc2O[C@@H]2O[C@H]([C@@H](C)O)[C@@H](O)[C@H](O)[C@H]2O)cc1 [Example 44, 3-Chloro-5-hydroxymethyl-2-(4-methoxybenzyl)phenyl 7-deoxy-D-glycero-β-D-gluco-heptopyranoside] |
| 9.4 nM | COc1ccc(Cc2ccc(CO)cc2O[C@@H]2O[C@H]([C@@H](C)O)[C@@H](O)[C@H](O)[C@H]2O)cc1 [Example 9, 2-(4-Methoxybenzyl)-5-hydroxymethylphenyl 7-deoxy-D-glycero-β-D-gluco-heptopyranoside] |
| 9.4 nM | COc1ccc(Cc2ccc(CO)cc2O[C@@H]2O[C@H]([C@@H](C)O)[C@@H](O)[C@H](O)[C@H]2O)c(F)c1 [Example 82, 2-(2-Fluoro-4-methoxybenzyl)-5-hydroxymethylphenyl 7-deoxy-D-glycero-β-D-gluco-heptopyranoside] |
